Reference: ChEMBL document CHEMBL1201862, “PubChem BioAssay data set” (2004)
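Cells were grown in 96-well plates and exposed to each compound for 48 hours at five concentrations; endpoints were interpolated linearly between bracketing concentrations, or set to the highest concentration if not reached. GI50 marks 50% less growth.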 Calls of active or inactive are those of the source. Cut-off read from the data, not from the text of the source: active = GI50 up to about 1.1 µM and inactive = higher.

Assays:
Experiment in all cases: growth of human tumour cells (NCI), 48 h
U-251 = tested on: U-251
SK-MEL-5 = tested on: SK-MEL-5
SK-MEL-28 = tested on: SK-MEL-28
SF-539 = tested on: SF-539
SNB-19 = tested on: SNB-19
HT-29 = tested on: HT-29
HOP-62 = tested on: HOP-62
UACC-62 = tested on: UACC-62
IGROV-1 = tested on: IGROV-1
OVCAR-8 = tested on: OVCAR-8
A498 = tested on: A498
NCI/ADR-RES = tested on: NCI/ADR-RES
MDA-N = tested on: MDA-N
TK-10 = tested on: TK-10
HCT-116 = tested on: HCT-116
OVCAR-3 = tested on: OVCAR-3
COLO 205 = tested on: COLO 205
786-0 = tested on: 786-0
CCRF-CEM = tested on: CCRF-CEM
A549 = tested on: A549

Measured: GI50

C/C(=N\NC(=O)c1ccncc1)c1ccccc1Cl
inactive: U-251 > 100 µM | SK-MEL-5 > 100 µM | SK-MEL-28 > 100 µM | SF-539 > 100 µM | SNB-19 > 100 µM | HT-29 > 100 µM | HOP-62 > 100 µM | UACC-62 > 100 µM | IGROV-1 > 100 µM | OVCAR-8 > 100 µM | A498 > 100 µM | NCI/ADR-RES > 100 µM | MDA-N > 100 µM | TK-10 > 100 µM | HCT-116 > 100 µM | OVCAR-3 > 100 µM | COLO 205 > 100 µM | 786-0 > 100 µM | CCRF-CEM > 100 µM | A549 > 100 µM

O=P(O)(NCCCl)NCCCl [PALIFOSFAMIDE]
inactive: U-251 > 10 µM | SK-MEL-5 > 10 µM | SK-MEL-28 > 100 µM | SF-539 52.5 µM | SNB-19 > 10 µM | HT-29 > 10 µM | HOP-62 65.6 µM | UACC-62 38.6 µM | IGROV-1 > 100 µM | OVCAR-8 > 10 µM | A498 > 100 µM | NCI/ADR-RES > 100 µM | MDA-N > 100 µM | TK-10 > 10 µM | HCT-116 > 100 µM | OVCAR-3 > 10 µM | COLO 205 > 100 µM | 786-0 > 67.8 µM | CCRF-CEM 47.5 µM | A549 81.5 µM

COc1ccc2nc3n(c2c1)CCc1cc(OC)c(OC)cc1-3
inactive: U-251 60.8 µM | SK-MEL-5 18.7 µM | SK-MEL-28 78 µM | SF-539 88.9 µM | SNB-19 99.5 µM | HT-29 26.7 µM | HOP-62 58.2 µM | UACC-62 32.3 µM | OVCAR-8 41.6 µM | A498 68.7 µM | NCI/ADR-RES 45.2 µM | MDA-N 44 µM | TK-10 86.3 µM | HCT-116 47.8 µM | OVCAR-3 46.7 µM | COLO 205 26.1 µM | 786-0 49.8 µM | CCRF-CEM 49.1 µM | A549 44.5 µM

CC(C)(C)c1ccc(C(C)(C)C)c(N2C(=O)[C@@H]3[C@@H]4C=C[C@@H](C4)[C@]3(C)C2=O)c1
inactive: U-251 18.7 µM | SK-MEL-5 30.8 µM | SK-MEL-28 31.3 µM | SF-539 51.5 µM | SNB-19 > 100 µM | HT-29 29.2 µM | HOP-62 44 µM | UACC-62 13.1 µM | IGROV-1 18.6 µM | OVCAR-8 14.6 µM | A498 16.5 µM | NCI/ADR-RES 29.6 µM | MDA-N 14 µM | TK-10 35 µM | HCT-116 15.5 µM | OVCAR-3 13.9 µM | COLO 205 42.2 µM | 786-0 17.4 µM | CCRF-CEM 7.38 µM | A549 41 µM

CCOP(C)(=O)/C(Cc1ccc(OC)c(OC)c1)=N\O (configuration not stated)
inactive: U-251 > 100 µM | SK-MEL-5 > 100 µM | SK-MEL-28 > 100 µM | SF-539 > 100 µM | SNB-19 > 100 µM | HT-29 > 100 µM | HOP-62 > 100 µM | UACC-62 > 100 µM | IGROV-1 > 100 µM | OVCAR-8 > 100 µM | A498 > 100 µM | NCI/ADR-RES > 100 µM | MDA-N > 100 µM | TK-10 > 100 µM | HCT-116 > 100 µM | OVCAR-3 > 100 µM | COLO 205 > 100 µM | 786-0 > 100 µM | CCRF-CEM > 100 µM | A549 > 100 µM

Cc1c(-c2ccccc2)[nH]n(C2=NCCN2)c1=O
inactive: U-251 > 100 µM | SK-MEL-5 > 100 µM | SF-539 > 100 µM | SNB-19 > 100 µM | HT-29 46.3 µM | HOP-62 > 100 µM | UACC-62 > 100 µM | IGROV-1 67.8 µM | OVCAR-8 > 100 µM | A498 > 100 µM | NCI/ADR-RES > 100 µM | MDA-N > 100 µM | TK-10 > 100 µM | HCT-116 > 100 µM | OVCAR-3 > 100 µM | COLO 205 > 100 µM | 786-0 > 100 µM | CCRF-CEM > 100 µM | A549 > 100 µM

CCCCCCCCCCCCCCCCCC(=O)OCC(COC1OC(CS(=O)(=O)O)C(O)C(O)C1O)OC(=O)CCCCCCCCCCCCCCCCC (configuration not stated)
inactive: U-251 > 100 µM | SK-MEL-5 > 100 µM | SK-MEL-28 > 100 µM | SF-539 > 100 µM | SNB-19 > 100 µM | HT-29 > 100 µM | HOP-62 > 100 µM | UACC-62 > 100 µM | IGROV-1 > 100 µM | OVCAR-8 > 100 µM | A498 > 100 µM | NCI/ADR-RES > 100 µM | MDA-N > 100 µM | TK-10 > 100 µM | HCT-116 > 100 µM | OVCAR-3 > 100 µM | COLO 205 > 100 µM | 786-0 > 100 µM | CCRF-CEM > 100 µM | A549 > 100 µM

O=C(NCCCCCCCCNC(=O)c1cccc2ccccc12)c1cccc2ccccc12
inactive: U-251 12.5 µM | SK-MEL-5 > 92.9 µM | SK-MEL-28 > 59 µM | SF-539 4.94 µM | SNB-19 20.1 µM | HT-29 > 100 µM | HOP-62 4.07 µM | UACC-62 21.2 µM | IGROV-1 20.4 µM | OVCAR-8 9.91 µM | A498 17.1 µM | NCI/ADR-RES 28.3 µM | MDA-N > 100 µM | TK-10 12.1 µM | HCT-116 24.4 µM | OVCAR-3 16.7 µM | COLO 205 55.1 µM | 786-0 4.89 µM | CCRF-CEM > 100 µM | A549 34.2 µM

CSC1=Nc2ccccc2-c2nc3ccccc3cc2C1
inactive: U-251 > 100 µM | SK-MEL-5 > 100 µM | SK-MEL-28 > 100 µM | SF-539 > 100 µM | SNB-19 > 100 µM | HT-29 > 100 µM | HOP-62 > 100 µM | UACC-62 > 100 µM | IGROV-1 > 100 µM | OVCAR-8 > 100 µM | A498 > 100 µM | NCI/ADR-RES > 100 µM | MDA-N > 100 µM | TK-10 > 100 µM | HCT-116 > 100 µM | OVCAR-3 > 100 µM | COLO 205 > 100 µM | 786-0 > 100 µM | CCRF-CEM > 100 µM | A549 > 100 µM

CN(C)c1ccc(/C=C(\C#N)C(N)=C(C#N)C#N)cc1
inactive: U-251 > 100 µM | SK-MEL-5 > 100 µM | SK-MEL-28 80 µM | SF-539 > 100 µM | SNB-19 > 100 µM | HT-29 > 100 µM | HOP-62 > 100 µM | UACC-62 94 µM | IGROV-1 > 100 µM | OVCAR-8 > 100 µM | A498 > 100 µM | NCI/ADR-RES > 100 µM | MDA-N > 100 µM | TK-10 > 100 µM | HCT-116 > 100 µM | OVCAR-3 > 100 µM | COLO 205 > 100 µM | 786-0 > 100 µM | CCRF-CEM > 100 µM | A549 > 100 µM

COc1ccc2c(c1)CCCN1CCc3ccccc3C21 (configuration not stated)
inactive: U-251 28.4 µM | SK-MEL-5 33.8 µM | SK-MEL-28 36.5 µM | SF-539 28.6 µM | SNB-19 42.6 µM | HT-29 33.3 µM | HOP-62 37.9 µM | UACC-62 32.5 µM | IGROV-1 50 µM | OVCAR-8 39.9 µM | A498 55.3 µM | NCI/ADR-RES 16.8 µM | MDA-N 18.9 µM | TK-10 43.1 µM | HCT-116 16.8 µM | OVCAR-3 30.2 µM | COLO 205 22.4 µM | 786-0 26.6 µM | CCRF-CEM 26.1 µM | A549 37.3 µM

NC1=Nc2cc(C(F)(F)F)ccc2Sc2nc3ccccc3n21
inactive: U-251 5.56 µM | SK-MEL-5 6.73 µM | SK-MEL-28 > 100 µM | SF-539 > 46.5 µM | SNB-19 15.6 µM | HT-29 12.6 µM | HOP-62 > 60 µM | UACC-62 57.4 µM | IGROV-1 > 25.7 µM | OVCAR-8 12.5 µM | A498 > 45.5 µM | NCI/ADR-RES > 100 µM | MDA-N 5.53 µM | TK-10 > 67 µM | HCT-116 3.73 µM | OVCAR-3 33.1 µM | COLO 205 > 21.2 µM | 786-0 11.6 µM | CCRF-CEM 2.64 µM | A549 > 56 µM

[N-]=[N+]=NC(c1ccccc1)(c1ccccc1)c1ccccc1
inactive: U-251 15.8 µM | SK-MEL-5 13.8 µM | SK-MEL-28 18.4 µM | SF-539 16.9 µM | SNB-19 18.4 µM | HT-29 16 µM | HOP-62 19.5 µM | UACC-62 15.4 µM | IGROV-1 25 µM | OVCAR-8 17.3 µM | A498 17.3 µM | NCI/ADR-RES 16.7 µM | MDA-N 16.4 µM | TK-10 17.5 µM | HCT-116 16 µM | OVCAR-3 20.4 µM | COLO 205 14.6 µM | 786-0 17.1 µM | CCRF-CEM 19.1 µM | A549 17 µM

O=c1[nH]c(NCc2cccnc2)nc2[nH]cnc12
inactive: U-251 > 100 µM | SK-MEL-5 > 100 µM | SF-539 > 100 µM | SNB-19 > 100 µM | HT-29 > 100 µM | HOP-62 > 100 µM | UACC-62 > 100 µM | IGROV-1 > 100 µM | OVCAR-8 > 100 µM | A498 > 100 µM | NCI/ADR-RES > 100 µM | MDA-N > 100 µM | TK-10 > 100 µM | HCT-116 > 100 µM | OVCAR-3 > 100 µM | COLO 205 > 100 µM | 786-0 > 100 µM | CCRF-CEM > 100 µM | A549 > 100 µM
